Test results: ChEMBL document CHEMBL6078680, “Improving the Stability and Anti-Infective Activity of Sea Turtle AMPs Using Multiple Structural Modification Strategies” (J Med Chem, 2024)
Activity calls are given as the source filed them. The calls are words filed in the database; no cut-off is given here. Positions of bridges follow the written chain, without caps; N, C: chain ends. Residues, ends and D or L forms follow the SMILES beside them.

Legend:
[1] = test system: Enterococcus faecium; test: Antimicrobial activity against Enterococcus faecium 34 assessed as reduction in microbial growth incubated for 18 hrs by broth microdilution method; format: functional
[2] = test system: Escherichia coli; test: Antimicrobial activity against Escherichia coli ATCC 25922 assessed as reduction in microbial growth incubated for 18 hrs by broth microdilution method; format: functional
[3] = test system: Escherichia coli; test: Antimicrobial activity against Escherichia coli CMCC44102 assessed as reduction in microbial growth incubated for 18 hrs by broth microdilution method; format: functional
[4] = test system: Acinetobacter baumannii; test: Antimicrobial activity against Acinetobacter baumannii ATCC19606 assessed as reduction in microbial growth incubated for 18 hrs by broth microdilution method; format: functional
[5] = test system: Pseudomonas aeruginosa; test: Antimicrobial activity against Pseudomonas aeruginosa CMCC10104 assessed as reduction in microbial growth incubated for 18 hrs by broth microdilution method; format: functional
[6] = test system: Staphylococcus aureus; test: Antimicrobial activity against Staphylococcus aureus ATCC 43300 assessed as reduction in microbial growth incubated for 18 hrs by broth microdilution method; format: functional
[7] = test system: Staphylococcus epidermidis; test: Antimicrobial activity against Staphylococcus epidermidis assessed as reduction in microbial growth incubated for 18 hrs by broth microdilution method; format: functional
[8] = test system: Staphylococcus aureus; test: Antimicrobial activity against Staphylococcus aureus 08032706 assessed as reduction in microbial growth incubated for 18 hrs by broth microdilution method; format: functional
[9] = Hemolytic activity at human Erythrocyte assessed as hemolysis at 100 microg/ml; format: toxicity, cell-based; conditions: erythrocytes, at 100 µg/mL, read-out: Activity
[10] = test system: Peritoneal macrophage; test: Antiinflammatory activity in mouse Peritoneal macrophage cells assessed as inhibition of LPS-induced TNF-alpha production at 20 microg/ml incubated for 6 hrs by ELISA analysis; format: functional, cell-based; conditions: dose 20.0 µg/ml
[11] = test system: Peritoneal macrophage; test: Antiinflammatory activity in mouse Peritoneal macrophage cells assessed as inhibition of LPS-induced IL-6 production at 20 microg/ml incubated for 6 hrs by ELISA analysis; format: functional, cell-based; conditions: dose 20.0 µg/ml
[12] = test system: Acinetobacter baumannii; test: Drug resistance, ratio of MIC for Acinetobacter baumannii ATCC1960 after 40 passages to MIC for Acinetobacter baumannii ATCC1960 during first exposure; format: functional
[13] = test system: Staphylococcus aureus; test: Antibiofilm activity against Staphylococcus aureus CMCC 26003 assessed as inhibition of biofilm formation incubated for 48 hrs by crystal violet staining based analysis; format: functional, organism-based
[14] = test system: Acinetobacter baumannii; test: Antibiofilm activity against Acinetobacter baumannii ATCC 19606 assessed as inhibition of biofilm formation incubated for 48 hrs by crystal violet staining based analysis; format: functional, organism-based
[15] = test system: Staphylococcus aureus; test: Antibiofilm activity against Staphylococcus aureus CMCC 26003 assessed as biofilm eradication incubated for 24 hrs by crystal violet staining based analysis; format: functional, organism-based
[16] = test system: Acinetobacter baumannii; test: Antibiofilm activity against Acinetobacter baumannii ATCC 19606 assessed as biofilm eradication incubated for 24 hrs by crystal violet staining based analysis; format: functional, organism-based
[17] = test system: Acinetobacter baumannii; test: Antibiofilm activity against Acinetobacter baumannii ATCC 19606 assessed as inhibition of biofilm formation at 0.5 times MIC incubated for 48 hrs by crystal violet staining based analysis; format: functional
[18] = test system: Staphylococcus aureus; test: Antibiofilm activity against Staphylococcus aureus CMCC 26003 assessed as biofilm eradication at 0.5 to 2 times MIC incubated for 24 hrs by crystal violet staining based analysis; format: functional
[19] = test system: Acinetobacter baumannii; test: Antipersister-activity against Acinetobacter baumannii ATCC 19606 assessed as elimination of persister cells at 50 times MIC preincubated adherent persistent cells with colistin incubation for 24 hrs; format: functional
[20] = test system: Staphylococcus aureus; test: Antipersister-activity against Staphylococcus aureus CMCC 26003 assessed as elimination of persister cells at 50 times MIC preincubated adherent persistent cells with colistin incubation for 24 hrs; format: functional
[21] = test system: Cell membrane; test: Disruption of cell membrane integrity in Staphylococcus aureus CMCC 26003 assessed as cell membrane damage at 5 times MIC measured after 30 mins by scanning electron microscopic analysis; format: subcellular
[22] = test system: Escherichia coli; test: Antibacterial activity against Escherichia coli ATCC 25922 assessed as increase in intracellular ROS production at 1 times MIC by DCFH-DA staining based assay; format: functional, organism-based
[23] = test system: Escherichia coli; test: Antibacterial activity against Escherichia coli ATCC 25922 assessed as increase in intracellular ROS production at 2 to 5 times MIC by DCFH-DA staining based assay; format: functional, organism-based
[24] = test system: Staphylococcus aureus; test: Antibacterial activity against Staphylococcus aureus CMCC 26003 assessed as increase in intracellular ROS production incubated for 1 hr by DCFH-DA staining based assay; format: functional, organism-based
[25] = test system: Staphylococcus aureus; test: Bactericidal activity against Staphylococcus aureus CMCC 26003 assessed as bacterial eradication incubated at 0.5 hrs in presence of thiourea; format: functional, organism-based
[26] = test system: Escherichia coli; test: Antibacterial activity against Escherichia coli ATCC 25922 at 1 times MIC in presence of exogenous DNA; format: functional, organism-based
[27] = Acute toxicity in BALB/c mouse assessed as mortality at 10 mg/kg, iv measured for 24 hrs; format: organism-based; conditions: in vivo, read-out: Activity
[28] = Acute toxicity in BALB/c mouse assessed as mortality at 50 mg/kg, iv measured for 24 hrs; format: organism-based; conditions: in vivo, read-out: Activity
[29] = Acute toxicity in BALB/c mouse assessed as effect on ALT level at 10 mg/kg, iv measured for 24 hrs; format: organism-based; conditions: in vivo
[30] = test system: Acinetobacter baumannii; test: In vivo antibacterial activity against Acinetobacter baumannii ATCC19606 infected in BALB/c mouse assessed as survival at 15 mg/kg, ip administered for 12 hrs and measured on day 7; format: functional; conditions: ATCC19606, 168 h, time 7 day
[31] = test system: Acinetobacter baumannii; test: In vivo antibacterial activity against Acinetobacter baumannii ATCC19606 infected in BALB/c mouse assessed as survival at 15 mg/kg, ip administered for 12 hrs and measured after 3 hrs; format: functional; conditions: time 15 hrs
[32] = test system: Acinetobacter baumannii; test: In vivo antibacterial activity against Acinetobacter baumannii ATCC19606 infected in BALB/c mouse assessed as reduction in bacterial load at 15 mg/kg, ip; format: functional, organism-based; conditions: time 3.0 hrs
[33] = test system: Acinetobacter baumannii; test: In vivo antibacterial activity against Acinetobacter baumannii ATCC19606 infected in BALB/c mouse assessed as reduction in bacterial load in liver at 15 mg/kg, ip measured after 3 hrs; format: functional, organism-based
[34] = test system: Acinetobacter baumannii; test: In vivo antibacterial activity against Acinetobacter baumannii ATCC19606 infected in BALB/c mouse assessed as reduction in bacterial load in liver at 15 mg/kg, ip measured after 12 hrs; format: functional, organism-based
[35] = test system: Acinetobacter baumannii; test: In vivo antibacterial activity against Acinetobacter baumannii ATCC19606 infected in BALB/c mouse assessed as reduction in bacterial load in lung at 15 mg/kg, ip measured after 12 hrs; format: functional, organism-based
[36] = test system: Acinetobacter baumannii; test: In vivo antibacterial activity against Acinetobacter baumannii ATCC19606 infected in BALB/c mouse assessed as reduction in bacterial load in kidney at 15 mg/kg, ip measured after 12 hrs; format: functional, organism-based
[37] = test system: Staphylococcus aureus; test: Antimicrobial activity against Staphylococcus aureus CMCC 26003 at 5 times MIC measured at 180 mins; format: functional, organism-based
[38] = test system: Escherichia coli; test: Drug resistance, ratio of MIC for Escherichia coli ATCC 25922 after 40 passages to MIC for Escherichia coli ATCC 25922 during first exposure; format: functional
[39] = test system: Cell membrane; test: Disruption of cell membrane integrity in Escherichia coli ATCC 25922 assessed as cell membrane damage at 5 times MIC measured after 30 mins by scanning electron microscopic analysis; format: subcellular
[40] = test system: Staphylococcus aureus; test: Antimicrobial activity against Staphylococcus aureus CMCC 26003 assessed as fold increase in MIC incubated for 18 hrs in presence of CCCP; format: functional

| SMILES | MIC [1] [µg/mL] | MIC [2] [µg/mL] | MIC [3] [µg/mL] | MIC [4] [µg/mL] | MIC [5] [µg/mL] | MIC [6] [µg/mL] | MIC [7] [µg/mL] | MIC [8] [µg/mL] | hemolysis at 100 microg/ml [9] [%] | Activity [10] | Activity [11] | Ratio [12] | Activity [13] | Activity [14] | Activity [15] | Activity [16] | inhibition (INH) [17] [%] | Activity [18] [%] | Activity [19] [%] | Activity [20] [%] | further results |
| --- | --- | --- | --- | --- | --- | --- | --- | --- | --- | --- | --- | --- | --- | --- | --- | --- | --- | --- | --- | --- | --- |
| CC[C@H](C)[C@H](NC(=O)[C@H](CCCNC(=N)N)NC(=O)[C@H](CO)NC(=O)[C@H](Cc1c[nH]cn1)NC(=O)[C@H](CCCNC(=N)N)NC(=O)[C@H](CC(C)C)NC(=O)[C@@H](NC(=O)[C@H](CCCNC(=N)N)NC(=O)CNC(=O)[C@H](CC(C)C)NC(=O)[C@H](CCC(N)=O)NC(=O)[C@H](CCCCN)NC(=O)[C@H](CCCNC(=N)N)NC(=O)[C@@H](NC(=O)[C@H](CCCCN)NC(=O)[C@H](CCCCN)NC(=O)[C@@H](N)Cc1ccccc1)C(C)C)C(C)C)C(=O)N[C@H](C(=O)N[C@H](C(=O)NCC(=O)NCC(=O)N[C@@H](CCCNC(=N)N)C(=O)N[C@@H](CCSC)C(=O)N[C@@H](CCCNC(=N)N)C(=O)N[C@@H](Cc1ccccc1)C(=O)O)C(C)C)[C@@H](C)O | 18.8 | 2.34 | 2.34 | 4.69 | 4.69 | 75 | 18.8 | 9.38 | < 5 | Active | Active | 1 | Active | Active | Active | Active | 10 | 20 | 60 | 50 | Activity [21]: Active; Activity [22]: Active; Activity [23]: Active; Activity [24]: Dose-dependent-effect; Activity [25]: Active; Activity [26]: Active; mortality at 24 h [27]: 0%; mortality at 24 h [28]: 16.7%; Activity [29]: Non-toxic; survival at 15 mg/kg [30]: 40%; Activity [31]: >60%; Activity [32]: Time-dependent-effect; Activity [33]: Active; Activity [34]: Active; Activity [35]: Active; Activity [36]: Active |
| CC[C@H](C)[C@H](NC(=O)[C@H](CCCNC(=N)N)NC(=O)[C@H](CO)NC(=O)[C@@H]1CSSC[C@H](N)C(=O)N[C@@H](Cc2ccccc2)C(=O)N[C@@H](CCCCN)C(=O)N[C@@H](CCCCN)C(=O)N[C@@H](C(C)C)C(=O)N[C@@H](CCCNC(=N)N)C(=O)N[C@@H](CCCCN)C(=O)N[C@@H](CCC(N)=O)C(=O)N[C@@H](CC(C)C)C(=O)NCC(=O)N[C@@H](CCCNC(=N)N)C(=O)N[C@@H](C(C)C)C(=O)N[C@@H](CC(C)C)C(=O)N[C@@H](CCCNC(=N)N)C(=O)N[C@@H](Cc2c[nH]cn2)C(=O)N1)C(=O)N[C@H](C(=O)N[C@H](C(=O)NCC(=O)NCC(=O)N[C@@H](CCCNC(=N)N)C(=O)N[C@@H](CCSC)C(=O)N[C@@H](CCCNC(=N)N)C(=O)N[C@@H](Cc1ccccc1)C(=O)O)C(C)C)[C@@H](C)O (H-CFKKVRKQLGRVLRHCSRITVGGRMRF-OH; disulfide 1-16) | 9.38 | 4.69 | 4.69 | 18.8 | 9.38 | 18.8 | 9.38 | 9.38 | < 5 | Active | Active | 1 | Active | Active | Active | Active | 10 | 20 | 60 | 50 | Activity [37]: inactive; Ratio [38]: 1; Activity [39]: Active; Activity [21]: Active; fold change (FC) [40]: 32; Activity [22]: Active; Activity [24]: Dose-dependent-effect; Activity [26]: Active; mortality at 24 h [27]: 0%; mortality at 24 h [28]: 50%; Activity [29]: Non-toxic; survival at 15 mg/kg [30]: 40%; Activity [31]: >60%; Activity [32]: Time-dependent-effect; Activity [33]: Active; Activity [34]: Active; Activity [35]: Active; Activity [36]: Active |
